{"source": "patent US7943162B2", "about": "“Drug delivery device” (Alcon, Inc., priority 1999, dated 2011)", "test": "ocular pharmacokinetic study with rabbits implanted with ophthalmic drug delivery device 50 (LC-MS/MS tissue concentration)", "format": "in vivo, New Zealand White rabbits", "conditions": "device 50 implanted on outer sclera below Tenon's capsule", "source_text": "Device 50 was constructed as shown in FIGS. 5 through 6B, with the following dimensions. […] Inner core 106 was a cylindrical tablet with a diameter of about 5.0 mm and a thickness of about 1.5 mm. […] The pharmaceutically active agent used in tablet 106 was 4,9(11)-Pregnadien-17α,21-diol-3,20-dione, an angiostatic steroid sold by Steraloids, Inc. of Wilton, N.H., and which is more fully disclosed in U.S. Pat. Nos. 5,770,592 and 5,679,666. The formulation of tablet 106 consisted of 99.75 weight percent 4,9(11)-Pregnadien-17α,21-diol-3,20-dione, and 0.25 weight percent magnesium stearate.\nAt one week after implantation, 4 rabbits were euthanized and their right eyes were enucleated. The device 50 was removed from the eyes, and the location of tablet 106 was marked on their sclerae. Following the removal of the anterior segment and the vitreous of each eye and inversion of the thus formed eye-cup, a 10 mm diameter circular zone of retinal tissue, concentric with and below the location of tablet 106 on the sclera, was harvested (the “target site”). […] All these tissues were separately homogenized, and the concentration of angiostatic steroid in each of these tissues was determined via an ocular pharmacokinetic study using high performance liquid chromatography and mass spectrometry analysis (LC-MS/MS). […]", "data": [{"smiles": "C[C@]12CCC(=O)C=C1CC[C@@H]1C2=CC[C@@]2(C)[C@H]1CC[C@]2(O)C(=O)CO", "note": "[4,9(11)-Pregnadien-17α,21-diol-3,20-dione]", "values": [{"measurement": "mean concentration of angiostatic steroid in the retina and the choroid at the target site as a function of time", "setting": "right eye, tablet 99.75 wt% drug, target site below tablet, 1, 3, 6, 9, 12 weeks after implantation, up to twelve weeks", "result": "pharmaceutically effective and generally constant amount"}, {"measurement": "levels of angiostatic steroid in the retina and the choroid at the second and third sites", "setting": "second site remote from the target site, on the other side of the optic nerve, third site between the second site and the target site", "result": "at or near zero"}]}]}
